Read-outs that look alike come from different tables or passages of the source.
Legend:
DabiOBP14 = format: binding, Dioryctria abietella; details: for Ki: competitive displacement of 1-NPN, three replicates, mean ± SE, read-out: OBP14 Ki (dissociation constant)
Description: (§1) In the binding assays, we selected 100 compounds derived from host/non-host plants and man-made insecticides widely used for the control of lepidopteran pests, representing 88 general odorants (21 esters, 21 alcohols, 14 aldehydes, 13 alkenes, seven ketones, 11 alkanes and one acid) and 12 insecticides. These compounds and N-phenyl-1-naphthylamine (1-NPN) were purchased from Aladdin and Sigma-Aldrich, with the highest available purity. They were first diluted into 100 mM, using methanol (HPLC purity grade, ≥99.9%) as a stock solution. The concentrations of the work solution for each ligand and 1-NPN were set at 1 mM.
In order to measure the binding properties of the DabiOBPs to the 100 ligands, competitive binding assays were performed on a RF5301PC fluorescence spectrophotometer (Shimadzu, Japan). The concentrations of DabiOBPs and the fluorescent probe 1-NPN were set at 2 μM. The binding of DabiOBPs to 1-NPN in 20 mM Tris-HCl buffer (pH 7.4) was measured by adding final concentrations of 2–16 μM 1-NPN. Accordingly, binding constants (K1-NPN) of the DabiOBPs and 1-NPN were calculated using GraphPad Prism 7 (GraphPad Software Inc., San Diego, CA). The binding of the DabiOBPs to various ligands was conducted by adding different concentrations of ligands (2, 4, 6, 8, 12, 16 and 20 μM) into the DabiOBP5/1-NPN (each 2 μM) or DabiOBP14/1-NPN (each 2 μM) mixtures. For the ligands replacing over a half of 1-NPN fluorescence (50%) at 20 μM, three replicates were performed. The excitation wavelength was set at 337 nm and the emission peaks were recorded at around 400 nm. The dissociation constants (Ki) of the tested ligands to DabiOBPs were computed, using the equation: Ki = [IC50]/(1 + [1-NPN]/K1-NPN), where [1-NPN] was the free concentration of 1-NPN and IC50 was the concentration of ligands replacing 50% of 1-NPN fluorescence.

DabiOBP5 = target: T1, DabiOBP5 (Dioryctria abietella, UniProt A0A8E6HS34); test: Competitive fluorescence binding assay with 1-NPN probe, recombinant DabiOBP5
T1 sequence (A0A8E6HS34 19-139): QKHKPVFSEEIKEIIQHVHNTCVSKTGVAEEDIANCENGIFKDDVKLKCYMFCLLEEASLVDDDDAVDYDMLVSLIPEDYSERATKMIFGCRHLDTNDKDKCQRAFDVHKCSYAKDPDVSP
Excerpt: as §1, with “They were first diluted into 100 mM, using methanol (HPLC purity grade, ≥99.9%) as a stock solution.” left out
In order to measure the binding properties of the DabiOBPs to the 100 ligands, competitive binding assays were performed on a RF5301PC fluorescence spectrophotometer (Shimadzu, Japan). The concentrations of DabiOBPs and the fluorescent probe 1-NPN were set at 2 μM. […] Accordingly, binding constants (K1-NPN) of the DabiOBPs and 1-NPN were calculated using GraphPad Prism 7 (GraphPad Software Inc., San Diego, CA). […] For the ligands replacing over a half of 1-NPN fluorescence (50%) at 20 μM, three replicates were performed. The excitation wavelength was set at 337 nm and the emission peaks were recorded at around 400 nm.

[1] = ligand at 20 μM, DabiOBP14/1-NPN each 2 μM, Tris-HCl pH 7.4, NB = no binding
[2] = ligand at 20 μM; DabiOBP5/1-NPN each 2 μM; Tris-HCl pH 7.4; NB = no binding; read-out: OBP5 F.D. (%) fluorescence displacement percent
[3] = ligand at 20 μM; DabiOBP5/1-NPN each 2 μM; Tris-HCl pH 7.4; NB = no binding
[4] = pH 7.4, read-out: OBP5 F.D. (%) fluorescence displacement percent
[5] = read-out: OBP5 Ki (dissociation constant); competitive displacement of 1-NPN; three replicates; mean ± SE

Compound | OBP14 F.D. (%) fluorescence displacement percent (DabiOBP14; [1]) [%] | inhibition at 20 µM (DabiOBP5; [2]) [%] | further results
CC(C)=CCCC(C)=CC=O (mixture of isomers) [Citral] | 32.25 | 39 | 
C=CC(C)(O)CCC=C(C)CCC=C(C)C (mixture of isomers) [Nerolidol] | 37.52 | 34.6 | 
CCCCCCCCCCO [1-Decanol] | 31.32 | 31.4 | 
CCCCCCCCCCCCO [1-Dodecanol] | 28.55 | 38.7 | 
CCCCCCCO [1-Heptanol] | 39.10 | 39.3 | 
CCCCCCCCCCCCCCCCO [1-Hexadecanol] | 31.97 | 37 | 
CCCCCCO [1-Hexanol] | 40.27 | 38.9 | 
c1ccc(Nc2cccc3ccccc23)cc1 [1-NPN, N-phenyl-1-naphthylamine] |  |  | Kd (DabiOBP14; 2 μM protein, 2–16 μM 1-NPN, 20 mM Tris-HCl pH 7.4, read-out: K1-NPN binding constant of DabiOBP14 and 1-NPN): 4.5 ± 0.42 µM; Kd (DabiOBP5; 2 μM protein, 2–16 μM 1-NPN, 20 mM Tris-HCl pH 7.4; read-out: K1-NPN binding constant of DabiOBP5 and 1-NPN): 7.49 ± 0.69 µM
CCCCCCCCCO [1-Nonanol] | 29.98 | 39.6 | 
CCCCCCCCO [1-Octanol] | 35.51 | 35 | 
CCCCCCCCCCCO [1-Undecanol] |  | 37.7 | 
C=CCCCCCCCCC [1-Undecene] |  | 17.4 | 
CCCCCC(C)O (stereo not shown) [2-Heptanol] | 24.86 | 13.9 | 
CCCCCC(C)=O [2-Heptanone] | 33.53 | 36.5 | 
CCCCC(C)=O [2-Hexanone] | 27.57 | 43.1 | 
CCC(C)CO (stereo not shown) [2-Methyl-1-butanol] | 27.78 | 36 | 
CCCCCCCCCCCC(C)=O [2-Tridecanone] | 32.61 | 35.6 | 
CC1=CCC2C(C1)C2(C)C (stereo not shown) [3-Carene] | 29.92 | 41.6 | 
CCCC(=O)CC [3-Hexanone] | 36.58 | 25.3 | 
CC(C)=CCO [3-Methyl-2-buten-1-ol] | 34.58 | 37 | 
CCCCC=CCCO [3-Octenol] | 31.31 | 25.1 | 
CC(C)=CCCC(C)O (stereo not shown) [6-Methyl-5-hepten-2-ol] | 33.49 | 41.4 | 
CC(=O)CCC=C(C)C [6-Methyl-5-hepten-2-one] | 34.39 | 40.3 | 
CC(=O)c1ccccc1 [Acetophenone] | 36.22 | 38.8 | 
CCCCCOC(C)=O [Amyl acetate] | 25.00 |  | OBP5 F.D. (%) fluorescence displacement percent (DabiOBP5; [3]): 26.33%
O=Cc1ccccc1 [Benzaldehyde] | 38.35 | 36.8 | 

Compound | OBP14 F.D. (%) fluorescence displacement percent (DabiOBP14; [1]) [%] | inhibition at 20 µM (DabiOBP5; [2]) [%] | further results
O=C(OCc1ccccc1)c1ccccc1 [Benzyl benzoate] | 49.39 | 47.8 | 
CCCCOC(C)=O [Butyl acetate] |  | 31.6 | OBP14 F.D. (%) fluorescence displacement percent (DabiOBP14; pH 7.4): 0.16%
O=C(NC(=O)c1ccccc1Cl)Nc1ccc(Cl)cc1 [Chlorbenzuron] | 47.43 |  | OBP5 F.D. (%) fluorescence displacement percent (DabiOBP5; [3]): 39.11%
CCOCn1c(-c2ccc(Cl)cc2)c(C#N)c(Br)c1C(F)(F)F [Chlorfenapyr] | 60.84 |  | Ki (DabiOBP14; listed as chlorfenapyr): < 13 µM; Ki (DabiOBP14): 8.41 ± 0.42 µM; inhibition at 20 µM (DabiOBP5; [4]): 62%; Ki (DabiOBP5; [5]): 8.16 ± 0.55 µM; Ki (DabiOBP5; read-out: OBP5 Ki (dissociation constant); competitive displacement of 1-NPN; three replicates; mean ± SE; listed as chlorfenapyr): < 13 µM
CCOP(=S)(OCC)Oc1nc(Cl)c(Cl)cc1Cl [Chlorpyrifos] | 72.41 |  | Ki (DabiOBP14; listed as chlorpyrifos): < 13 µM; Ki (DabiOBP14): 4.62 ± 0.46 µM; inhibition at 20 µM (DabiOBP5; [4]): 66.1%; Ki (DabiOBP5; [5]): 5.92 ± 0.48 µM; Ki (DabiOBP5; read-out: OBP5 Ki (dissociation constant); competitive displacement of 1-NPN; three replicates; mean ± SE; listed as chlorpyrifos): < 13 µM
CCCCCCCCCC=O [Decanal] | 21.35 | 29.1 | 
CCCCCCCCCC [Decane] |  | 20.2 | 
CCCCCCCCCCOC(C)=O [Decyl acetate] | 15.15 | 26.2 | 
CC1(C)[C@H](C(=O)O[C@H](C#N)c2cccc(Oc3ccccc3)c2)[C@@H]1C=C(Br)Br [Deltamethrin] | 38.21 | 28.5 | 
O=C(NC(=O)c1c(F)cccc1F)Nc1ccc(Cl)cc1 [Diflubenzuron] | 30.33 | 21.4 | 
CCCCCCCCCCCC=O [Dodecanal] | 3.43 | 30.6 | 
CCCCCCCCCCCC [Dodecane] | 17.71 | 31.9 | 
CCC/C=C/CO [E2-Hexen-1-ol] | 18.64 |  | OBP5 F.D. (%) fluorescence displacement percent (DabiOBP5; [3]): 36.50%
CCC/C=C/C=O [E2-Hexenal] | 32.34 |  | OBP5 F.D. (%) fluorescence displacement percent (DabiOBP5; [3]): 33.10%
CCOC(C)=O [Ethyl acetate] | 23.29 | 19 | 
CCOC(=O)c1ccccc1 [Ethyl benzoate] | 30.02 | 29.4 | 
CCCC(=O)OCC [Ethyl butyrate] | 31.72 | 32 | 
CCCCCC(=O)OCC [Ethyl hexanoate] | 29.43 | 24.2 | 
CCCCC/C=C\C=C\C(=O)OCC [Ethyl-(2E,4Z)-decadienoate] | 68.07 |  | Ki (DabiOBP14; listed as ethyl-(2E,4Z)-decadienoate): < 13 µM; Ki (DabiOBP14): 6.45 ± 0.43 µM; Ki (DabiOBP5; competitive displacement of 1-NPN; three replicates; mean ± SE; listed as ethyl-(2E,4Z)-decadienoate; read-out: OBP5 Ki (dissociation constant)): < 13 µM; Ki (DabiOBP5; competitive displacement of 1-NPN; three replicates; mean ± SE; read-out: OBP5 Ki (dissociation constant)): 5.67 ± 0.55 µM; OBP5 F.D. (%) fluorescence displacement percent (DabiOBP5; [3]): 69.83%
CC(C)=CCC/C(C)=C/CC/C(C)=C/CO [Farnesol] | 36.20 | 36.3 | 
CCCCCCCCC [Nonane] |  | 22.2 | 
CCCCCCCC [Octane] |  | 27.9 | 
CCCCCCCCCCCCC [Tridecane] |  | 5.52 | 
C/C1=C\CC/C(C)=C/CC(C)(C)/C=C/C1 [α-Caryophyllene] |  |  | OBP5 F.D. (%) fluorescence displacement percent (DabiOBP5; [3]): 15.42%
C=C1CC/C=C(\C)CC[C@@H]2[C@@H]1CC2(C)C [β-Caryophyllene] |  | 16.3 | 
